Measured values taken from US5591741A, “Fungicidal spiroheterocyclic derivatives” (American Cyanamid Company, priority 1993, dated 1997).

Experiments:
Rhizoctonia solani = test: Activity against Rhizoctonia in-vitro (RSI); format: cell-based; conditions: 10 ppm, 10 days, 20° C., mycelial growth
Method: (i) Activity against Rhizoctonia in-vitro (Rhizoctonia solani: RSI) This test measures the in-vitro activity of compounds against R. solani that causes stem and root rots. The test compound in acetone is added into 4 ml aliquots of half strength Potato Dextrose Broth dispensed in 25-compartment petri dishes to give final concentrations of 10 ppm. The fungal inoculum consists of mycelial fragments of R. solani growth in half strength PDB in shaken culture flasks and added to the broth to provide 5×10^4 fragments/ml broth. Petri dishes are incubated at 20° C. for 10 days until the assessment of mycelial growth. The extent of disease control in all the above tests is expressed as a rating compared with either an untreated control or a diluent-sprayed-control, according to the criteria: […]

Botrytis cinerea = test: Direct protectant activity against broad bean grey mould (BCB); format: in vivo; conditions: direct protectant foliar spray, 600 ppm, 4 days
Method: (c) Direct protectant activity against broad bean grey mould (Botrytis cinerea; BCB) The test is a direct protectant foliar spray. The upper surfaces of leaves of broad bean plants with two leaf pairs (cv The Sutton) are sprayed with the test compound at a dosage of 600 ppm using an automated sprayline as described under (a). 24 hours after spraying the leaves are inoculated with an aqueous suspension containing 10^6 conidia/ml. For 4 days after inoculation plants are kept in a high humidity compartment at 22° C. Disease is assessed 4 days after inoculation, based on the percentage of leaf surface area covered by lesions. The extent of disease control in all the above tests is expressed as a rating compared with either an untreated control or a diluent-sprayed-control, according to the criteria: […]

Phytophthora infestans = format: in vivo; conditions: tomato, direct protectant foliar spray
Plasmopara viticola = test: Antisporulant activity against vine downy mildew (PVA); format: in vivo; conditions: vine leaves, antisporulant foliar spray, 600 ppm, 750 l/ha
Method: (a) Antisporulant activity against vine downy mildew (Plasmopara viticola; PVA) The test is a direct antisporulant one using a foliar spray. The lower surfaces of leaves of whole vine plants (cv Cabernet Sauvignon), approximately 8 cm high, are inoculated by spraying with an aqueous suspension containing 5×10^4 zoosporangia/ml. The inoculated plants are kept for 24 hours at 21° C. in a high humidity compartment, then 24 hours at glasshouse ambient temperature and humidity. Infected leaves are sprayed on their lower surfaces with a solution of active material in 1:1 water/acetone containing 0.04% "TWEEN 20" (Trade Mark; a polyoxyethylene sorbitan ester surfactant). Plants are treated using an automated sprayline with an atomising nozzle. The concentration of the compound is 600 ppm, and the spray volume is 750 l/ha. After spraying, the plants are returned to normal glasshouse conditions for 96 hours and are then transferred to the high humidity compartment for 24 hours to induce sporulation. Assessment is based on the percentage of the leaf area covered by sporulation compared with that on control leaves. The extent of disease control in all the above tests is expressed as a rating compared with either an untreated control or a diluent-sprayed-control, according to the criteria: […]

Alternaria solani = test: Activity against tomato early blight (AS); format: in vivo; conditions: Table VI; tomato seedlings, contact prophylactic foliar spray, 4 days
Method: b) Activity against tomato early blight (Alternaria solani; AS) This test measures the contact prophylactic activity of test compounds applied as a foliar spray. Tomato seedlings (cv Outdoor Girl) are grown to the stage at which the second true leaf is expanded. The plants are treated using an automated sprayline as described under (a). Test compounds are applied as solutions or suspensions in a mixture of acetone and water (50:50 v/v) containing 0.04% surfactant ("TWEEN 20"--Trade Mark). After drying the plants are kept for 24 hours in a glasshouse at 20° C. and 40% R.H., followed by inoculation of the leaf upper surfaces with a suspension of A. solani conidia containing 10^4 spores/ml. For 4 days after inoculation plants are kept moist in a humidity compartment at 21° C. Disease is assessed 4 days after inoculation, based on the percentage of leaf surface area covered by lesions when compared with control plants. The extent of disease control in all the above tests is expressed as a rating compared with either an untreated control or a diluent-sprayed-control, according to the criteria: […]

Pyricularia oryzae = format: in vivo; conditions: rice seedlings, direct therapeutic foliar spray, 600 ppm, 4-5 days
[1] = test system: Pseudocercosporella herpotrichoides; test: Activity against wheat eyespot in-vitro (PHI); format: cell-based; conditions: 10 ppm, 10 days, 20° C., mycelial growth
Method: (h) Activity against wheat eyespot in-vitro (Pseudocercosporella herpotrichoides; pHI) This test measures the in vitro activity of compounds against the fungus causing wheat eyespot. The test compound is dissolved or suspended in acetone and is added into 4 ml aliquots of half strength Potato Dextrose Broth (PDB) dispended in 25-compartment petri dishes to give a final concentration of 10ppm. The fungal inoculum consists of mycelial fragments of P. herpotrichoides grown in half strength PDB in shaken flasks and added to the broth to provide 5×10^4 fragments/ml broth. Petri dishes are incubated at 20° C. for 10 days until the assessment of mycelial growth. The extent of disease control in all the above tests is expressed as a rating compared with either an untreated control or a diluent-sprayed-control, according to the criteria: […]

[2] = test system: Erysiphe graminis f.sp. hordei; test: Activity against barley powdery mildew, direct therapeutic (EGT); format: in vivo; conditions: direct therapeutic foliar spray, 600 ppm, up to 7 days
Method: (e) Activity against barley powdery mildew (Erysiphe graminis f.sp. hordei; EGT) The test is a direct therapeutic foliar spray. Leaves of barley seedlings, (cv. Golden Promise) at the single leaf stage are inoculated by dusting with mildew conidia one day prior to treatment with the test compound. The inoculated plants are kept overnight at glasshouse ambient temperature (18° C.) and humidity (40%) prior to treatment. The plants are sprayed with the test compound at a dosage of 600 ppm using an automated sprayline as described under (a). After drying, plants are returned to a compartment at 18° C. and 40% humidity for up to 7 days. Assessment is based on the percentage of leaf area covered by sporulation compared with that on leaves of control plants. The extent of disease control in all the above tests is expressed as a rating compared with either an untreated control or a diluent-sprayed-control, according to the criteria: […]

Leptosphaeria nodorum = test: Activity against wheat leafspot (LN); format: in vivo; conditions: direct therapeutic foliar spray, 600 ppm, 6-8 days
Method: (d) Activity against wheat leafspot (Leptosphaeria nodorum; LN.) The test is a direct therapeutic foliar spray. Leaves of wheat plants (cv Norman), at the single leaf stage, are inoculated by spraying with an aqueous suspension containing 1.5×10^6 conidia/ml. The inoculated plants are kept for 24 hours in a high humidity compartment prior to treatment. The plants are sprayed with a solution of the test compound at a dosage of 600 ppm using an automated sprayline as described under (a). After drying, the plants are kept for 6-8 days at 22° C. and moderate humidity (70%). Assessment is based on the density of lesions per leaf compared with that on leaves of control plants. The extent of disease control in all the above tests is expressed as a rating compared with either an untreated control or a diluent-sprayed-control, according to the criteria: […]

Venturia inaequalis = test: Activity against apple scab in-vitro (VII); format: cell-based; conditions: 10 ppm, 10 days, 20° C., mycelial growth
Method: (j) Activity against apple scab in-vitro (Venturia inaequalis: VII) This test measures the in-vitro activity of compounds against V. inaequalis that causes apple scab. The test compound in acetone is added into 4 ml aliquots of half strength Potato Dextrose Broth dispensed in 25-compartment petri dishes to give final concentrations of 10 ppm. The fungal inoculum consists of mycelial fragments and spores of V. inaequalis grown on malt agar and added to the broth to provide 5×10^4 propagules/ml broth. Petri dishes are incubated at 20° C. for 10 days until the assessment of mycelial growth. The extent of disease control in all the above tests is expressed as a rating compared with either an untreated control or a diluent-sprayed-control, according to the criteria: […]

[3] = test system: Erysiphe graminis f.sp. hordei; test: Direct protectant activity against barley powdery mildew (EGP); format: in vivo; conditions: direct protectant foliar spray, 8 days
Method: (f) Direct protectant activity against barley powdery mildew (Erysiphe graminis f.sp. hordei; EGP) The test is a direct protectant foliar spray. Leaves of barley seedlings (cv Golden Promise) at the single leaf stage are sprayed with the test compound as described under (a). After drying, the plants are kept for 24 hours in a glasshouse at 18° C. and 40% R.H. Then the plants are inoculated by dusting with mildew conidia and kept at 18° C. and 40% R.H. for 8 days. Assessment is based on the percentage of leaf area covered by sporulation compared with that on leaves of control plants. The extent of disease control in all the above tests is expressed as a rating compared with either an untreated control or a diluent-sprayed-control, according to the criteria: […]

SMILES: CC(C)(C)C1CCC2(CC1)CC(NCc1ccc(Cl)cc1)CO2 (centres unmarked) [Compound 1]
- disease control rating RSI (Rhizoctonia solani): 0 (less than 50% disease control)
- disease control rating BCB (Botrytis cinerea): 0 (less than 50% disease control)
- disease control rating PIP (Phytophthora infestans): 0 (less than 50% disease control)
- disease control rating PVA (Plasmopara viticola): 0 (less than 50% disease control)
- disease control rating AS (Alternaria solani): 0 (less than 50% disease control)
- disease control rating PO (Pyricularia oryzae): 0 (less than 50% disease control)
- disease control rating PHI [1]: 1 (about 50-80% disease control)
- disease control rating EGT [2]: 2 (greater than 80% disease control)
- disease control rating LN (Leptosphaeria nodorum): 0 (less than 50% disease control)
- disease control rating VII (Venturia inaequalis): 0 (less than 50% disease control)

SMILES: CC1CCN(C2COC3(CCC(C(C)(C)CC(C)(C)C)CC3)C2)CC1 (centres unmarked) [Compound 135]
- disease control rating RSI (Rhizoctonia solani): 2 (greater than 80% disease control)
- disease control rating BCB (Botrytis cinerea): 0 (less than 50% disease control)
- disease control rating PVA (Plasmopara viticola): 0 (less than 50% disease control)
- disease control rating EGP [3]: 2 (greater than 80% disease control)
- disease control rating AS (Alternaria solani): 0 (less than 50% disease control)
- disease control rating PO (Pyricularia oryzae): 0 (less than 50% disease control)
- disease control rating PHI [1]: 2 (greater than 80% disease control)
- disease control rating EGT [2]: 2 (greater than 80% disease control)
- disease control rating LN (Leptosphaeria nodorum): 1 (about 50-80% disease control)
- disease control rating VII (Venturia inaequalis): 1 (about 50-80% disease control)

SMILES: CC1CN(C2COC3(CCC(C(C)(C)C)CC3)C2)CC(C)O1 (centres unmarked) [Compound 3]
- disease control rating RSI (Rhizoctonia solani): 0 (less than 50% disease control)
- disease control rating BCB (Botrytis cinerea): 0 (less than 50% disease control)
- disease control rating PIP (Phytophthora infestans): 0 (less than 50% disease control)
- disease control rating PVA (Plasmopara viticola): 0 (less than 50% disease control)
- disease control rating AS (Alternaria solani): 0 (less than 50% disease control)
- disease control rating PO (Pyricularia oryzae): 0 (less than 50% disease control)
- disease control rating PHI [1]: 2 (greater than 80% disease control)
- disease control rating EGT [2]: 1 (about 50-80% disease control)
- disease control rating LN (Leptosphaeria nodorum): 0 (less than 50% disease control)
- disease control rating VII (Venturia inaequalis): 2 (greater than 80% disease control)

SMILES: CC1CC(C)CN(C2COC3(CCC(C(C)(C)CC(C)(C)C)CC3)C2)C1 (centres unmarked) [Compound 136]
- disease control rating RSI (Rhizoctonia solani): 2 (greater than 80% disease control)
- disease control rating BCB (Botrytis cinerea): 0 (less than 50% disease control)
- disease control rating PVA (Plasmopara viticola): 0 (less than 50% disease control)
- disease control rating EGP [3]: 2 (greater than 80% disease control)
- disease control rating AS (Alternaria solani): 0 (less than 50% disease control)
- disease control rating PO (Pyricularia oryzae): 0 (less than 50% disease control)
- disease control rating PHI [1]: 2 (greater than 80% disease control)
- disease control rating EGT [2]: 2 (greater than 80% disease control)
- disease control rating LN (Leptosphaeria nodorum): 0 (less than 50% disease control)
- disease control rating VII (Venturia inaequalis): 0 (less than 50% disease control)

SMILES: CCCCCCNC1COC2(CCC(C(C)(C)C)CC2)C1 (centres unmarked) [Compound 2]
- disease control rating RSI (Rhizoctonia solani): 1 (about 50-80% disease control)
- disease control rating BCB (Botrytis cinerea): 0 (less than 50% disease control)
- disease control rating PIP (Phytophthora infestans): 0 (less than 50% disease control)
- disease control rating PVA (Plasmopara viticola): 0 (less than 50% disease control)
- disease control rating AS (Alternaria solani): 0 (less than 50% disease control)
- disease control rating PO (Pyricularia oryzae): 0 (less than 50% disease control)
- disease control rating PHI [1]: 1 (about 50-80% disease control)
- disease control rating EGT [2]: 2 (greater than 80% disease control)
- disease control rating LN (Leptosphaeria nodorum): 0 (less than 50% disease control)
- disease control rating VII (Venturia inaequalis): 0 (less than 50% disease control)
